Experiment in all cases: NCI-60 cell line screen, 48 h
Assay [1] concerns 786-0.
Assay [2] deals with A498.
Assay [3] has as its system A549.
Assay [4] deals with CAKI-1.
For assay [5], the system named is HCT-15.
The test system of assay [6] is M14.
Assay [7] concerns MCF7.
For assay [8], the system named is MDA-MB-231.
For assay [9], the system named is MDA-N.
Assay [10] has as its system NCI-H226.
Assay [11] deals with NCI-H23.
Assay [12] deals with OVCAR-3.
For assay [13], the system named is RXF 393.
For assay [14], the system named is SK-MEL-2.
The test system of assay [15] is SK-MEL-5.
The test system of assay [16] is SN12C.
Assay [17] relates to SR.
In assay [18] the test system is U-251.
Assay [19] has as its system UACC-62.
The subject of assay [20] is UO-31.

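Cultured in 96-well plates, cells were exposed to test compound for 48 hours across five concentrations. The concentration for 50% growth inhibition is given as GI50.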 Activity calls are given as the source filed them. Rule as the data show it: active = GI50 up to about 1.1 µM and inactive = higher. A value given as a limit tells only on which side of the number the result lay.

The text below walks through data of ChEMBL document CHEMBL1201862, “PubChem BioAssay data set” (2004).

For the compound `Cc1ccc(S(=O)(=O)n2c3c(c4ccccc42)CCN2C(=O)C(S(=O)(=O)c4ccccc4)=CCC32)cc1` (stereo not given), the GI50 in assay [1] was 0.178 µM (active); in assay [2], 0.213 µM (active); in assay [3] it was 1.22 µM (inactive); in assay [4], 0.262 µM (active); in assay [5], 0.188 µM; in assay [6] it was 0.175 µM (active). Also, the GI50 in assay [7] was 0.164 µM (active); in assay [8], 0.186 µM (active); in assay [9] it was 0.192 µM (active); in assay [10], 1.77 µM (inactive); in assay [11], 0.158 µM (active); in assay [12], 0.164 µM (active). For the same compound, the GI50 is 0.14 µM (active) in assay [13]; 0.217 µM (active) in [14]; 0.165 µM (active) in assay [15]; 0.211 µM (active) in assay [16]; 0.255 µM (active) in assay [17]; 0.22 µM (active) in assay [18]. Further, the values for the GI50 in assay [19] and in [20] were 0.27 µM (active) and 0.234 µM (active), respectively.
`CC(C)/C(Cl)=N\OC(=O)Nc1ccc(F)cc1F`: the GI50 in assay [1] was 3.9 µM (inactive); in assay [2], 17 µM (inactive); in assay [3], 18.4 µM (inactive); in [4], 19.3 µM (inactive); in [5], 7.67 µM; in [6] it was 2.98 µM (inactive). Further, the GI50 in assay [7] was 3.43 µM (inactive); in assay [8] it was 2.21 µM (inactive); in [9], 9.33 µM (inactive); in [10], 15.8 µM (inactive); in [11], 14.3 µM (inactive); in [12], 2.68 µM (inactive). Further, the GI50 in assay [13] was 3.72 µM (inactive); in assay [14], 13.6 µM (inactive); in [15], 14.3 µM (inactive); in assay [16], 6.78 µM (inactive); in assay [17], 1.67 µM (inactive); in assay [18], 18 µM (inactive). In addition, the GI50 in assay [19] is 16.9 µM (inactive); in assay [20], 7.52 µM (inactive).
In the case of `COC(=O)C(CNC(=O)/C=C/c1ccc(OC(C)=O)c(OC(C)=O)c1)NC(=O)/C=C/c1ccc(OC(C)=O)c(OC(C)=O)c1` (stereo not given), the GI50 in assay [1] is > 100 µM (inactive); in assay [2], > 100 µM (inactive); in assay [3] it was > 100 µM (inactive); in assay [4], > 100 µM (inactive); in [5] it was above 100 µM; in assay [6] it was > 100 µM (inactive). Further, the GI50 in assay [7], in assay [8], in assay [9], in [10], in [11] and in assay [12] was > 100 µM (inactive) in each case. For the same compound, the GI50 was > 100 µM (inactive) in [13]; > 100 µM (inactive) in assay [14]; > 100 µM (inactive) in assay [15]; > 100 µM (inactive) in assay [16]; 92.9 µM (inactive) in assay [17]; 88.7 µM (inactive) in assay [18]. Further, the GI50 in assay [19] and in [20] was > 100 µM (inactive) throughout.
For the compound `Cc1ccc(/N=N/c2ccc(N)cc2C)c(S(N)(=O)=O)c1`, the GI50 in assay [1] was > 100 µM (inactive); in [2], > 100 µM (inactive); in assay [3], 50.5 µM (inactive); in [4], > 100 µM (inactive); in [5] it was 71.4 µM; in assay [6], > 100 µM (inactive). Also, the GI50 in assay [7] was 61.9 µM (inactive); in assay [8] it was > 100 µM (inactive); in assay [9] it was 71.9 µM (inactive); in assay [10] it was > 100 µM (inactive); in assay [11] it was > 100 µM (inactive); in [12], 50.4 µM (inactive). In addition, the GI50 is > 100 µM (inactive) in assay [13]; > 100 µM (inactive) in assay [14]; 77.6 µM (inactive) in assay [15]; > 100 µM (inactive) in assay [16]; 0.478 µM (active) in assay [17]; > 100 µM (inactive) in [18]. Moreover, the GI50 in assay [19] was 88.9 µM (inactive); in [20] it was 63 µM (inactive).
